# Results taken from patent US9561228B2 (Celgene Avilomics Research, Inc., priority 2013, dated 2017).
# Key:
# [1] = tested on: ERK1/2 phosphorylation of p90RSK in HCT116 cells; test: Detection of total and phospho-RSK by MSD ELISA (HCT116); type: cell-based; details: Homo sapiens, HCT-116, read-out: ERK1/ERK2 PRSK HCT116 EC50
# Procedure, shortened: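 ERK1/2 activity read in cells as p90RSK phosphorylation: lysates from HCT116 cells given compound for 2 h at 37° C were captured on MSD plates. Detection used a pSer380 RSK or a total RSK antibody with SulfoTag secondaries.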
# [2] = tested on: ERK1/2 phosphorylation of p90RSK in A375 cells; test: Detection of total and phosphor-RSK by MSD ELISA (A375); type: cell-based; details: Homo sapiens, A-375, read-out: ERK1/ERK2 PRSK A375 EC50
# Procedure, shortened: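 Electrochemiluminescent MSD ELISA: common RSK capture antibody, with pRSK Ser380 or total RSK detection antibodies plus SulfoTag secondaries. Samples were lysates of A375 cells exposed to compound for 2 h at 37° C after overnight culture in 0.1% FBS DMEM.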
SMILES,EC50 [1] [µM],EC50 [2] [µM]
"C=CC(=O)Nc1cc(C)ccc1Nc1nc(Nc2cc(OC)ncc2Cl)ncc1C(F)(F)F [Compound I-351, N-(2-((2-((5-chloro-2-methoxypyridin-4-yl)amino)-5-(trifluoromethyl)pyrimidin-4-yl)amino)-5-methylphenyl)acrylamide]",0.501 to 0.999,0.101 to 0.5
"C#CC(=O)Nc1cc(C)ccc1Nc1nc(Nc2cc(OC)ncc2C)ncc1C(F)(F)F [Compound I-345, N-(2-((2-((2-methoxy-5-methylpyridin-4-yl)amino)-5-(trifluoromethyl)pyrimidin-4-yl)amino)-5-methylphenyl)propiolamide]",> 1,> 1
"C=CC(=O)Nc1cc(C)ccc1Nc1nc(Nc2nc(OC)ncc2C)ncc1C(F)(F)F [Compound I-347, N-(2-((2-((2-methoxy-5-methylpyrimidin-4-yl)amino)-5-(trifluoromethyl)pyrimidin-4-yl)amino)-5-methylphenyl)acrylamide]",0.101 to 0.5,0.101 to 0.5
"C=CC(=O)Nc1cc(C)ccc1Nc1nc(Nc2cc(P(C)(C)=O)ncc2C)ncc1C(F)(F)F [Compound I-343, N-(2-((2-((2-(dimethylphosphoryl)-5-methylpyridin-4-yl)amino)-5-(trifluoromethyl)pyrimidin-4-yl)amino)-5-methylphenyl)acrylamide]",0.101 to 0.5,0.101 to 0.5
"C=CC(=O)Nc1cc(C)ccc1Nc1nc(Nc2nc(OC)nc(OC)n2)ncc1C(F)(F)F [Compound I-371, N-(2-((2-((4,6-dimethoxy-1,3,5-triazin-2-yl)amino)-5-(trifluoromethyl)pyrimidin-4-yl)amino)-5-methylphenyl)acrylamide]",> 1,0.101 to 0.5
"C=CC(=O)Nc1cc(C)ccc1Nc1nc(Nc2cc(OC)cnc2Cl)ncc1C(F)(F)F [Compound I-361, N-(2-((2-((2-chloro-5-methoxypyridin-3-yl)amino)-5-(trifluoromethyl)pyrimidin-4-yl)amino)-5-methylphenyl)acrylamide]",0.101 to 0.5,0.101 to 0.5
"C=CC(=O)Nc1cc(C)ccc1Nc1nc(Nc2nc(O)ncc2C)ncc1C(F)(F)F [Compound I-364, N-(2-((2-((2-hydroxy-5-methylpyrimidin-4-yl)amino)-5-(trifluoromethyl)pyrimidin-4-yl)amino)-5-methylphenyl)acrylamide]",0.101 to 0.5,< 0.1
C=CC(=O)Nc1ccccc1Nc1nc(Nc2cc(OC)nc(N3CCN(C(C)=O)CC3)c2)ncc1C(F)(F)F [Compound I-92],< 0.1,< 0.1
"C=CC(=O)Nc1cc(C)ccc1Nc1nc(Nc2cc(-c3nc[nH]n3)ccc2C)ncc1C(F)(F)F [Compound I-373, N-(5-methyl-2-((2-((2-methyl-5-(1H-1,2,4-triazol-3-yl)phenyl)amino)-5-(trifluoromethyl)pyrimidin-4-yl)amino)phenyl)acrylamide]",0.501 to 0.999,0.501 to 0.999
"C=CC(=O)Nc1cc(C)ccc1Nc1nc(Nc2ccnc3ccccc23)ncc1C(F)(F)F [Compound I-379, N-(5-methyl-2-((2-(quinolin-4-ylamino)-5-(trifluoromethyl)pyrimidin-4-yl)amino)phenyl)acrylamide]",0.501 to 0.999,< 0.1
"C=CC(=O)Nc1cc(C)ccc1Nc1nc(Nc2cc(-c3c[nH]cn3)ccc2C)ncc1C(F)(F)F [Compound I-378, N-(2-((2-((5-(1H-imidazol-4-yl)-2-methylphenyl)amino)-5-(trifluoromethyl)pyrimidin-4-yl)amino)-5-methylphenyl)acrylamide]",> 1,0.501 to 0.999
"C=CC(=O)Nc1cc(C)ccc1Nc1nc(Nc2nc(OC)ncc2Cl)ncc1C(F)(F)F [Compound I-344, N-(2-((2-((5-chloro-2-methoxypyrimidin-4-yl)amino)-5-(trifluoromethyl)pyrimidin-4-yl)amino)-5-methylphenyl)acrylamide]",0.101 to 0.5,0.101 to 0.5

# More lines, now with the values ahead:
EC50 [1] [µM],EC50 [2] [µM],SMILES
0.501 to 0.999,0.101 to 0.5,"C=CC(=O)Nc1cc(C)ccc1Nc1nc(Nc2cc(OC)ncc2CC)ncc1C(F)(F)F [Compound I-408, N-(2-((2-((5-ethyl-2-methoxypyridin-4-yl)amino)-5-(trifluoromethyl)pyrimidin-4-yl)amino)-5-methylphenyl)acrylamide]"
0.101 to 0.5,0.501 to 0.999,"C=CC(=O)Nc1cc(OCC(=O)N2CCN(C(C)=O)CC2)ccc1Nc1nc(Nc2cc(OC)ncc2OC)ncc1C(F)(F)F [Compound I-415, N-(5-(2-(4-acetylpiperazin-1-yl)-2-oxoethoxy)-2-((2-((2,5-dimethoxypyridin-4-yl)amino)-5-(trifluoromethyl)pyrimidin-4-yl)amino)phenyl)acrylamide]"
< 0.1,0.101 to 0.5,"C=CC(=O)Nc1cc(CN2CCN(C(C)=O)C[C@H]2C)ccc1Nc1nc(Nc2cc(OC)ncc2C)ncc1C(F)(F)F [Compound I-422, (R)—N-(5-((4-acetyl-2-methylpiperazin-1-yl)methyl)-2-((2-((2-methoxy-5-methylpyridin-4-yl)amino)-5-(trifluoromethyl)pyrimidin-4-yl)amino)phenyl)acrylamide]"
< 0.1,< 0.1,"C=CC(=O)Nc1cc(CCC(N)=O)ccc1Nc1nc(Nc2cc(OC)ncc2C)ncc1C(F)(F)F [Compound I-400, N-(5-(3-amino-3-oxopropyl)-2-((2-((2-methoxy-5-methylpyridin-4-yl)amino)-5-(trifluoromethyl)pyrimidin-4-yl)amino)phenyl)acrylamide]"
0.101 to 0.5,0.101 to 0.5,"C=CC(=O)Nc1cc(C(=O)N2CCN(S(C)(=O)=O)CC2)ccc1Nc1nc(Nc2cc(OC)ncc2C)ncc1C(F)(F)F [Compound I-401, N-(2-((2-((2-methoxy-5-methylpyridin-4-yl)amino)-5-(trifluoromethyl)pyrimidin-4-yl)amino)-5-(4-(methylsulfonyl)piperazine-1-carbonyl)phenyl)acrylamide]"
0.501 to 0.999,0.101 to 0.5,"C=CC(=O)Nc1cc(C)ccc1Nc1nc(Nc2cc(OC)ncc2C(F)F)ncc1C(F)(F)F [Compound I-431, N-(2-((2-((5-(difluoromethyl)-2-methoxypyridin-4-yl)amino)-5-(trifluoromethyl)pyrimidin-4-yl)amino)-5-methylphenyl)acrylamide]"
> 1,> 1,"C=CC(=O)Nc1c(Nc2nc(Nc3cc(OC)ncc3C)ncc2OC)cccc1OCc1nccs1 [Compound I-411, N-(2-((5-methoxy-2-((2-methoxy-5-methylpyridin-4-yl)amino)pyrimidin-4-yl)amino)-6-(thiazol-2-ylmethoxy)phenyl)acrylamide]"
0.101 to 0.5,0.101 to 0.5,"C=CC(=O)Nc1cc(OCC(N)=O)ccc1Nc1nc(NC2CCOCC2)ncc1C(F)(F)F [Compound I-387, N-(5-(2-amino-2-oxoethoxy)-2-((2-((tetrahydro-2H-pyran-4-yl)amino)-5-(trifluoromethyl)pyrimidin-4-yl)amino)phenyl)acrylamide]"
0.101 to 0.5,> 1,"C=CC(=O)Nc1cc(CN2CCN(S(C)(=O)=O)CC2)ccc1Nc1nc(Nc2nc(OC)ncc2C)ncc1C(F)(F)F [Compound I-383, N-(2-((2-((2-methoxy-5-methylpyrimidin-4-yl)amino)-5-(trifluoromethyl)pyrimidin-4-yl)amino)-5-((4-(methylsulfonyl)piperazin-1-yl)methyl)phenyl)acrylamide]"
< 0.1,< 0.1,"C=CC(=O)Nc1cc(O[C@H](C)C(N)=O)ccc1Nc1nc(Nc2cc(OC)ncc2C)ncc1C(F)(F)F [Compound I-413, (R)—N-(5-((1-amino-1-oxopropan-2-yl)oxy)-2-((2-((2-methoxy-5-methylpyridin-4-yl)amino)-5-(trifluoromethyl)pyrimidin-4-yl)amino)phenyl)acrylamide]"
0.501 to 0.999,> 1,"C=CC(=O)Nc1cc(CN2CCN(C(=O)CO)CC2)ccc1Nc1nc(Nc2nc(OC)ncc2C)ncc1C(F)(F)F [Compound I-386, N-(5-((4-(2-hydroxyacetyl)piperazin-1-yl)methyl)-2-((2-((2-methoxy-5-methylpyrimidin-4-yl)amino)-5-(trifluoromethyl)pyrimidin-4-yl)amino)phenyl)acrylamide]"
< 0.1,< 0.1,"C=CC(=O)Nc1cc(CN2CCN(C(=O)c3ccccn3)CC2)ccc1Nc1nc(Nc2cc(OC)ncc2C)ncc1C(F)(F)F [Compound I-388, N-(2-((2-((2-methoxy-5-methylpyridin-4-yl)amino)-5-(trifluoromethyl)pyrimidin-4-yl)amino)-5-((4-picolinoylpiperazin-1-yl)methyl)phenyl)acrylamide]"
0.101 to 0.5,0.501 to 0.999,"C=CC(=O)Nc1cc(CN2CCOCC2)ccc1Nc1nc(Nc2cc(OC)ncc2C)ncc1C(F)(F)F [Compound I-399, N-(2-((2-((2-methoxy-5-methylpyridin-4-yl)amino)-5-(trifluoromethyl)pyrimidin-4-yl)amino)-5-(morpholinomethyl)phenyl)acrylamide]"
0.101 to 0.5,0.101 to 0.5,"C=CC(=O)Nc1cc(CN2CCN(C(C)=O)C[C@@H]2C)ccc1Nc1nc(Nc2cc(OC)ncc2C)ncc1C(F)(F)F [Compound I-421, (S)—N-(5-((4-acetyl-2-methylpiperazin-1-yl)methyl)-2-((2-((2-methoxy-5-methylpyridin-4-yl)amino)-5-(trifluoromethyl)pyrimidin-4-yl)amino)phenyl)acrylamide]"
0.501 to 0.999,> 1,"C=CC(=O)Nc1cc(CN2CCN(C)CC2)ccc1Nc1nc(Nc2nc(OC)ncc2C)ncc1C(F)(F)F [Compound I-394, N-(2-((2-((2-methoxy-5-methylpyrimidin-4-yl)amino)-5-(trifluoromethyl)pyrimidin-4-yl)amino)-5-((4-methylpiperazin-1-yl)methyl)phenyl)acrylamide]"
